Experimental findings from PMC12067444, “Synthesis and Pharmacological Characterization of Novel Peripheral Cannabinoid-1 Receptor Blockers Based on a Tricyclic Scaffold” (Journal of Medicinal Chemistry, 2025) are described below.

Values joined by “and” are separate entries in the source; they are usually repeats but may differ in a detail not shown here. Equal values may be shown once. Read-outs that look alike come from different tables or passages of the source.

In one data set the target is T1, mouse CB1R (Mus musculus, UniProt P47746).
T1 construct: crude membranes from mouse brain; from tissue; host or cells: mouse brain cortex (without cerebellum) membranes, C57Bl/6Jhsd mice
As to the kind of experiment: Radioligand competition displacement binding, [3H]CP-55,940, mouse brain membranes. As to conditions: [3H]CP-55,940 displacement, mouse brain membranes; read-out: CB1R mKi. The method, then:
(§1) BNS compounds’ binding to CB1R and CB2R was assessed in competition displacement assays using [^3H]CP-55,940 as the radioligand and crude membranes from mouse brain or human cells overexpressing the CB1R or CB2R. All data were in triplicates with Ki values determined from three independent experiments. See SI for a detailed procedure.
Supplementary Experimental Methods
Brain membrane preparation for CB1R b i nd i ng . The mouse cortex, excluding the cerebellum, was dissected from 6-week-old C57Bl/6Jhsd mice (Harlan, Israel). The tissue was homogenized in 4 mL Buffer 1 (320 mM sucrose, 2 mM EDTA, 5 m M MgCl 2) using a glass-Teflon homogenizer and Hei-T ORQUE 200 (Heidolph; Cat# 17-012- 002- 25 -1) homogenizer set to 132 rpm. After homogenization, the mixture was centrifuged at 1,600 × g for 10 min at four °C, and the resulting supernatant was kept on ice. The pellet (P1) was discarded, and the remaining supernatant was subje cted to additional rounds of resuspension in 4 mL Buffer 1 followed by centrifugations, repeating this process three times. The pellets obtained from these centrifugations were discarded, and the three supernatant fractions were combined and subjected to higher-speed centrifugation at 39,000 × g for 15 min at f ou r °C. […] This resuspended pellet ( P 2 ) was incubated at 37 °C for 10 min and then centrifuged at 23, 000 × g for 10 min at 4°C.
After centrifugation, the pellet (P2) was resuspended in 5 mL Buffer 2 and further incubated at 30 °C for 40 min. Following this incubation, the suspension was centrifuged at 11,000 × g for 15 min at 4 °C. The pellet (P2) was resuspended in 2 mL Buffer 3 containing 50 mM TRIS HCl pH 7.4, 1 mM EDTA, and 3 mM MgCl 2. T h e protein concentration of the final suspension was determined using the BCA assay.
Subsequently, the suspension was diluted to a final concentration of 2 mg/mL in Buffer 3, aliquoted on ice, and stored at - 80 °C for further use.
(§2) CB1R and CB2R binding. Binding to the CB1R/CB2R was asse ss ed using competition displacement as says with [ 3H] CP -55,940 as the radioligand. Purified membranes from the mouse brain were utilized for CB1R assessment (as described above). Purified […]
membranes from cells overexpressing human CB2R ( Char les River CAT # A618) w e r e employed for CB2R evaluation.
For mouse CB1R binding assays, the novel compounds were dissolved in dimethyl sulfoxide (DMSO) to reach a final concentration of 10 mM. Each compound was then diluted in Buffer 3 (as described above) supplemented with 0.14% BSA, resulting in concentrations ranging from 10^-4 M to 10^-10 M. Triplicates of 100 µL of each concentration were dispensed into siliconized glass tubes. At the same time, 100 µL of Buffer 3 with 0.14% BSA was dispensed into three tubes as blanks. CB1R b r a i n membranes (20 µg) were added to each tube and diluted with 800 µL Buffer 3 with 0.14% BSA. Subsequently, 5 nM of [ 3H] CP -55,940 (100 µL) was added to each tube.
The tubes were sealed with parafilm and incubated with shaking (120 rpm) in a water bath at 30 °C for 1 hour. Following incubation, 2 mL of cold Buffer 4 (50 mM TRIS HCl pH 7.4, 1 mg/mL BSA) was added to each tube.
To harvest the content of each tube, a Brandel M-24R Vacuum Harvester was employed, with a wet WHATMAN GF/B filter paper (Fired) (one membrane for 12 tubes) placed in the harvester after being washed twice with Buffer 4. The filter membrane in the harvester absorbed the full content of each tube. Then, the filter membrane was wash ed six times with Buffer 4. Each filter -glass membrane tube wa s excised and transferred to a 20 mL glass tube co ntaining a 5 mL ULTIMA GOLD scintillation cocktail. […]
Background: Loss of bound radioactivity is the signal in a displacement assay; it reports binding, not function.

The next data set has as its target P-gp (MDR1) (Homo sapiens, UniProt P08183). As to the kind of experiment: Bidirectional permeability in MDR1-MDCKII cells with and without GF120918. Particulars: dog. The method, then: (§3) MDR1-MDCKII cells were seeded onto […] (PET) in a 96-well insert system. Test and reference compounds were administered to the apical (A-to-B) and basolateral (B-to-A) sides of the cell monolayer. Permeation of the compounds in both directions was assessed, with and without a P-glycoprotein (P-gp) inhibitor (GF120918). […] After a 2.5-h incubation period, each compound’s permeability and efflux ratio were calculated as described in the SI. […]
(§4) Bidirectional permeability assessment in MDR1-MDCK cells. Test and reference compounds were quantified using LC -MS/MS ana lysis based on th e peak ar ea r atio of analyte to internal standard (IS). T he apparent permeability coefficient (Papp) in cm/s was computed using the equation: Pa pp = (dCr/d t ) × V r / ( A × C 0), where dCr/ d t […]
(§5) represents the cumulative concentration of the compound in the receiver chamber over time (µM/s), Vr is the solution volume in the receiver chamber (0.075 mL on the apical side, 0.25 mL on the basolateral side), A is the surface area for transport (0.0804 cm2 f or the monolayer ar ea), and C0 is the initial concentration in the donor chamber ( µM) .
(§6) The efflux ratio was determined using the equation Efflux Ratio = P a pp ( B:
(§7) A ) / Pa pp (A: B) . […]
(§8) Additionally, the percent of lucifer yellow in the basolateral well was calculated using the equation:
(§9) Lucif er yellow = VV bbbbbbbbbbbbbbbbbbbb ×RR FFFF bbbbbbbbbbbbbbbbbbbb ×100 VV bbaaaaaa bbbb ×RRRRRR bbaaaaaa bbbb+VV bbbbbbbbbbbbbbbbbbbb ×RRFFFF bbbbbbbbbbbbbbbbbbbb wher e RFUApical and RFUBasolateral demote the r elative f luor escence unit values of lucif er yellow in the apical and basolateral wells, respectively, and VApical and VBasolateral represent the volumes of apical and basolateral wells (0.075 mL and 0.25 mL, r espectively) . T he % Lucif er Yellow should be less than 2, indicating minimal leakage. […]

A further data set concerns the target P-gp (MDR1-MDCKII cells) (Homo sapiens, UniProt P08183). Described as above. The method, then: as §3, §4, §5, §6, §7, §8, §9
The next data set deals with T2, human CB2R (Homo sapiens, UniProt P34972).
T2 construct: purchased PerkinElmer; Charles River RBXCB2M400UA; A618
As to the kind of experiment: Radioligand competition displacement binding, [3H]CP-55,940, membranes with human CB2R. Particulars: [3H]CP-55,940 displacement, read-out: CB2R hKi. The method, then: as §1
Supplementary Experimental Methods […]
as §2
membranes from cells overexpressing human CB2R ( Char les River CAT # A618) w e r e employed for CB2R evaluation. […]
(§10) Radioligand binding assays were performed to asse ss the binding affinity of the different compounds to hCB1R (RBHCB1M4 00UA; Per kinElmer) or hCB 2R
(§11) (RBXCB2 M400UA; PerkinElmer). Competition displacement as says w ere employed, […]
(§12) utilizing [3H] C P -55,940 as the radioligand and crude membranes from humans for CB1 R or CB2 R. T he compounds were tested at various concentrations (eight points with a five-fold serial dilution starting at two m M) , and their ability to displace [3H] CP - 55, 940 was evaluated. Upon completion of the binding assays, the reaction mixture was filtered through GF/C plates, followed by four washes with cold wash buffer. After drying for one hour, 50 μL of Perkin Elmer Microscint 20 cocktail was added to the filter plate wells, and the bound [3H] C P -55,940 radioligand was measured using a β counter. All data points were duplicated, and Ki values were determined from two independent experiments using GraphPad Prism 7.02 analysis software, extracted through nonlinear regression analysis. […]
MgCl 2. The tissue was homogenized using a glass -Teflon and Hei-T ORQUE 200 homogenizer (Heidolph; Cat#17- 012- 002- 25 -1) set to 132 rpm. The resulting suspen sion underwent centrifugation at 48,000 × g for 20 min at four °C, and the supernatant was discarded. The pellet obtained was homogenized again and subjected to a second centrifugation under the same conditions. Subsequently, the resulting pellet […]
mM EGTA, 9 mM MgCl 2, and 150 mM NaCl, followed by homogenization. The protein concentration of the suspension was determined using the BCA assay, and the suspen sion was diluted to a final concentration of 2 mg/mL in assay buffer. The prepared suspension was aliquoted on ice and stored at - 80 °C for further use.

A further data set has as its target T3, human CB1R (Homo sapiens, UniProt P21554).
T3 construct: purchased PerkinElmer RBHCB1M400UA
As to the kind of experiment: Radioligand competition displacement binding, [3H]CP-55,940, membranes with human CB1R. As to conditions: for IC50: human CB1R, read-out: CB1R hIC50. The method, then:
BNS compounds’ binding to CB1R and CB2R was assessed in competition displacement assays using [^3H]CP-55,940 as the radioligand and crude membranes from mouse brain or human cells overexpressing the CB1R or CB2R. All data were in triplicates with Ki values determined from three independent experiments. See SI for a detailed procedure. […]
as §10, §11, §12

For a further data set, the system named is HepG2 cells. As to the kind of experiment: Cell viability assay (CellTiter Glo). It counts as cell-based. As to conditions: 72 h; for IC50: Homo sapiens. The method, then: Cell viability assay. To assess the cell viability, which indicates the toxicity of the novel compounds, a total of 3,000 HepG2 cells were seeded into a 384-well plate. The compounds were then dispensed onto the cell plate using a Tecan D300e digital dispenser. Following compound addition, 35 μL CellTiter Glo reagent was added to all wells of the assay plate, and the plate was mixed for 30 sec on an or bital shaker to lyse cells. Subsequently, the plate was incubated at room temperature for 10 minutes. The luminescence signal was measured using a 384-well plate reader (EnVision). The obtained data were analyzed using XL-fit software (ID Business Solutions Ltd., Software version: XL fit 5. 5. 0. 5). The percentage of inhibition was calculated using the […]
Inhibition (%) = (1-Sample / ZPE) ×100
Sample represents the test compound's luminesc e nce signal, and ZPE represents the luminescence signal f r om the zer o-percent enzyme control.
(Cellular ATP, detected with luciferase, serves as a proxy for viable cell number.)

T2 sequence (P34972 whole entry): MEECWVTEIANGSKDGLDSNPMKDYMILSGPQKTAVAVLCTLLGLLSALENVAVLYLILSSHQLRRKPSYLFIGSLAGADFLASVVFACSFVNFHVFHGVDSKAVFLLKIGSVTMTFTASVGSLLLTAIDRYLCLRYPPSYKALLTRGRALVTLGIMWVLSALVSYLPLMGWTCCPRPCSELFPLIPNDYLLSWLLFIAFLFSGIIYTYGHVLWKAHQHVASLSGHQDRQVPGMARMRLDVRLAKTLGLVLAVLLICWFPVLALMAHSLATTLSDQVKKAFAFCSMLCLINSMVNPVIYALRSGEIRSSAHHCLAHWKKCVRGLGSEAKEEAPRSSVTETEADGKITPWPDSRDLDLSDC
Sequence of P-gp (MDR1) (P08183 whole entry): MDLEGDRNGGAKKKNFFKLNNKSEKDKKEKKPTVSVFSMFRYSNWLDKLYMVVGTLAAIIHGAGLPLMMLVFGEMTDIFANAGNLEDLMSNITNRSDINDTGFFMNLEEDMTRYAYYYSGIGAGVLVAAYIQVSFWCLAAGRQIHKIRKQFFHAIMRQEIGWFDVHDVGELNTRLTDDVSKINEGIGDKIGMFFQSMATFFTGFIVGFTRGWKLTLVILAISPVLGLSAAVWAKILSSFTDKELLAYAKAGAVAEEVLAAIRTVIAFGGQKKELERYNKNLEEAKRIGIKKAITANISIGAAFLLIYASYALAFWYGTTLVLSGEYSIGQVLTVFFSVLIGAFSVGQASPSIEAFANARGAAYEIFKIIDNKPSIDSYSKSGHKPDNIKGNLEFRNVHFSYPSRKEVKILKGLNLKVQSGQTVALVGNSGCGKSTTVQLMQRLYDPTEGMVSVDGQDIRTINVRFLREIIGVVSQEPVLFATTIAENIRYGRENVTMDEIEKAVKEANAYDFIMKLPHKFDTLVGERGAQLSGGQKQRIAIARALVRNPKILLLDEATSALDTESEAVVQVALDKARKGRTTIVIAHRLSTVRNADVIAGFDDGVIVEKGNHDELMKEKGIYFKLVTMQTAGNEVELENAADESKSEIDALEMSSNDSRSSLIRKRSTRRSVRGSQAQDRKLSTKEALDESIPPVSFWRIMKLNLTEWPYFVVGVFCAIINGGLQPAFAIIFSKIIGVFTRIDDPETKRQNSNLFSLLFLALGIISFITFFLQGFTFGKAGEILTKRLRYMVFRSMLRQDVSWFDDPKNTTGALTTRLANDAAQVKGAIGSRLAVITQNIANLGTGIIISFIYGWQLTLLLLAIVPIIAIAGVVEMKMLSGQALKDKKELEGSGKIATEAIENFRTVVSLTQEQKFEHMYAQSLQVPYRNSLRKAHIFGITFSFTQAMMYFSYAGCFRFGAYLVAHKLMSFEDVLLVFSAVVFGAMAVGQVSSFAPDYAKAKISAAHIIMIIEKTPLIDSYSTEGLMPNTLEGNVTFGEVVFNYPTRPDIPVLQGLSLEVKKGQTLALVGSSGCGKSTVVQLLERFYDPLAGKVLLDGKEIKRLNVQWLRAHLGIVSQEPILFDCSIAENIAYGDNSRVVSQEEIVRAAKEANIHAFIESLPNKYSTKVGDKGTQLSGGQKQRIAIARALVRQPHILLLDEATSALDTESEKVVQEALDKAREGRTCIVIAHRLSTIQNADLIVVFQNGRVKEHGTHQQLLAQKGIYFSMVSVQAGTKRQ
T3 sequence (P21554 whole entry): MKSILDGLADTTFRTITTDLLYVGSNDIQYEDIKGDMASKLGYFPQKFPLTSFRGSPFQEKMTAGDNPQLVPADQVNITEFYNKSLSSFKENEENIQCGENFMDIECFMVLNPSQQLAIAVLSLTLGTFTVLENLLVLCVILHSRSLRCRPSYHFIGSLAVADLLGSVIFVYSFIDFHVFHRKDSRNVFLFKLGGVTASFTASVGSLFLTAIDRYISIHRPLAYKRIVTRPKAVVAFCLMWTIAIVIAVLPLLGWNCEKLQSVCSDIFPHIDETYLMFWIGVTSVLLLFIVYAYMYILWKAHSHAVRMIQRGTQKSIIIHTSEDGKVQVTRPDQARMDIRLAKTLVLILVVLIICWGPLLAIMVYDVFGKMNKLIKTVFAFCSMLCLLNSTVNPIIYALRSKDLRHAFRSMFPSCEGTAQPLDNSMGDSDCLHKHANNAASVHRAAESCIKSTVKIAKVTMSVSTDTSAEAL
T1 sequence (P47746 whole entry): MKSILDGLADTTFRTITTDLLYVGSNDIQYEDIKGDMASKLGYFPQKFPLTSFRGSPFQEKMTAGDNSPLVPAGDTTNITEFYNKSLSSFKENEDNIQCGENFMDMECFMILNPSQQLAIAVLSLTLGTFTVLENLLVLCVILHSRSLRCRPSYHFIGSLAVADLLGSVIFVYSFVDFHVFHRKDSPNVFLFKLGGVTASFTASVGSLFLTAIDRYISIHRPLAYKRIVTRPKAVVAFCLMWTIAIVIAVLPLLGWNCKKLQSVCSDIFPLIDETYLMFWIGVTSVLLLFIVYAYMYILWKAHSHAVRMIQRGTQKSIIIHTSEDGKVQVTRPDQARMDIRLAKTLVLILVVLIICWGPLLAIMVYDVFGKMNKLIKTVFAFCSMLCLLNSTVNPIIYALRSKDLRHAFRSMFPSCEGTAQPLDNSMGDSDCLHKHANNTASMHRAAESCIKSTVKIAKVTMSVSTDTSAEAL
Sequence of P-gp (MDR1-MDCKII cells) (P08183 whole entry): as the sequence (P08183 whole entry) above

On to `CCOC(=O)N1CCC(C(=O)NC2CCCOc3c2nn(-c2ccccc2Cl)c3-c2ccc(Cl)cc2)CC1` (stereo not shown) [BNS816, Ethyl-4-((2-(2-chlorophenyl)-3-(4-chlorophenyl)-5,6,7,8-tetrahydro-2H-oxepino[3,2-c]pyrazol-8-yl)carbamoyl)piperidine-1-carboxylate], for which the Ki at mouse CB1R is 8.9 nM and 8.93 nM; on human CB2R, 1530 nM. Moreover, the Papp A→B at 2.5 h at P-gp (MDR1) (MDCK-MDR1) was 6.99 ×10⁻⁶ cm/s. For the same molecule, at P-gp (MDR1) (MDCK-MDR1), the Papp B→A at 2.5 h is 5.37 ×10⁻⁶ cm/s. Further, the efflux ratio at 2.5 h on P-gp (MDR1) (MDCK-MDR1) is 0.77. The recovery at 2.5 h at P-gp (MDR1) (MDCK-MDR1, Mean recovery % A to B, without GF120918) was 41.6%; on P-gp (MDR1) (MDCK-MDR1, Mean recovery % B to A, with GF120918) it was 61.4%; at P-gp (MDR1) (MDCK-MDR1, Mean recovery % B to A, without GF120918), 48.8%. Also, the P-gp substrate result at P-gp (MDR1-MDCKII cells) (MDR1-MDCKII cells) is “no”. Besides, the “Rank Papp” value on P-gp (MDR1-MDCKII cells) (MDR1-MDCKII permeability rank) is “Hi gh”.

With `CS(=O)(=O)NC1CCCOc2c1nn(-c1ccccc1Cl)c2-c1ccc(Cl)cc1` (stereo not shown) [BNS809, N-[2-(2-Chlorophenyl)-3-(4-chlorophenyl)-5,6,7,8-tetrahydrooxepino[3,2-c]pyrazol-8-yl]methanesulfonamide], the IC50 on human CB1R is 8.5 nM. Moreover, the Ki on mouse CB1R is 33.8 nM; on human CB2R, over 9000 nM.

For the molecule `O=C(NC1CCCOc2c1nn(-c1ccccc1Cl)c2-c1ccc(Cl)cc1)C1CCN(S(=O)(=O)c2ccc(Cl)cc2)CC1` (stereo not shown) [BNS825, N-[2-(2-Chlorophenyl)-3-(4-chlorophenyl)-5,6,7,8-tetrahydrooxepino[3,2-c]pyrazol-8-yl]-1-(4-chlorophenyl)sulfonyl-piperidine-4-carboxamide], the Ki on human CB1R ([3H]CP-55,940 displacement, human CB1R membranes, read-out: CB1R hKi) worked out at 3.1 nM; at mouse CB1R it was 1.6 nM; at human CB2R, 127 nM. Moreover, the IC50 at human CB1R is 3.8 nM; in the data set on HepG2 cells (read-out: cell viability Absolute IC50), over 100000 nM; with HepG2 cells (read-out: cell viability relative IC50) it was over 100000 nM. Also, the “Bottom (%) of cell viability inhibition curve” value with HepG2 cells is reported as -11.62%. In the data set on HepG2 cells, the “Slope of cell viability inhibition curve” value is -0.21. The “Top (%) of cell viability inhibition curve” value in the data set on HepG2 cells is listed as 6.27%.

As a reminder, the Papp A→B is the apparent permeability from the apical to the basolateral side of a cell layer. As a reminder, the Papp B→A is how fast a substance crosses the layer from the basolateral side. A word on the efflux ratio: it is the permeability from basolateral to apical divided by that in the opposite direction, in the common usage.
